Read-outs that look alike come from different tables or passages of the source.

The subject of data set [1] is HIV-1 infection of TZM-bl cells. As to the kind of experiment: HIV-1 infectivity enhancement assay, β-galactosidase luminescence. The data set is classed as cell-based. Conditions: for infectivity: infectivity class (low / medium / high) of each library peptide, main list in c1-c6, same classes repeated in sub-lists of sequences containing the hydrophobicity/charge patterns P+,H0,P+,H0,P0,H0,P0, P+,H0,P0,H0,P0,H0,P0, P+,H0,P0,H0; for Log10 Inf. rel. to EF-C: log10 of HIV-1 infection of TZM-bl cells relative to EF-C, Fig S15 source data, asymmetric std dev errors; for Log10 Infection Rel EF-C: log10 of infection relative to EF-C, Figure 7B; for Inf. rel. EF-C: n-fold infection vs virus only, relative to that of EF-C, 1.3 µM peptide.

The format of data set [2] is physicochemical. The conditions noted are these: for ThT Cat. / ThT-Fluorescence (categorical): ThT-active if fluorescence at least twice the control. Put shortly:
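Fibrils (1 mg/mL solution) were mixed with 50 µM ThT in PBS for 15 min at RT, and fluorescence was read at λex 440/λem 488 nm against a PBS blank, as a triplicate mean ± SD. Zeta potential came from electrophoretic mobility (Smoluchowski) after 1 d aggregation at 1 mg/mL in PBS pH 7.4, diluted into 1 mM KCl.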

Data set [3] is described as follows: Zeta-potential measurement. The data set is classed as physicochemical. The conditions noted are these: for Zeta-pot. / mV: zeta potential of peptide, Fig S15 source data; for Zeta pot. / mV: 1 mg/mL in PBS pH 7.4 from 10 mg/mL DMSO stock, 1 d RT, 60 µL diluted in 600 µL 1 mM KCl, Zetasizer Nano ZS, Smoluchowski, mean of triplicate; for Zeta-Potential / mV: mean, Figure 7B. Put shortly:
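Dissolve peptide from DMSO (10 mg/mL stock) into PBS pH 7.4 to 1 mg/mL. Incubate 1 d, RT. Dilute in 1 mM KCl just before reading. Derive zeta potential from mobility (Smoluchowski).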

Turning to KYKYQY [KB1], in data set [1] (Feb2021, figures match the 1.3 µM column), the “Absolute Infectivity / RLU /s (Feb2021)” value was 230 RLU /s. Moreover, the “n-fold to virus (Feb2021)” value in data set [1] (Feb2021, infectivity relative to virus only) stood at 0.4313. In addition, the “Log10 of Rel to EFC (Feb2021)” value in data set [1] (Feb2021, log10 of infectivity relative to EF-C) was -1.989. For the same substance, in data set [1] (Feb2021, n-fold infectivity relative to EF-C), the “Rel-to EFC (Feb-2021)” value is recorded as 0.01026. Further, in data set [1], the infectivity result was “low” and the “Log10 Inf. rel. to EF-C” value is reported as -1.9887. Also, the “Tht rel to blank (42.1851851851852)” value in data set [2] (ThT fluorescence relative to blank, blank = 42.1851851851852) is 6.106. In addition, the “Tht category (> 1.5 to blank = +)” value in data set [2] (category 1/0) is 1 (ThT. Cat is 1, if Rel. ThT >2). In addition, in data set [3], the “Zeta Pot. / mV” value is on record as -4.2 mV, the “Zeta category ( +1 = if > 4 mV;-1 = if < -4 mV; 0 = -4mV to 4 mV)” value (“Zeta category” below) is reported as -1 (-1 = if < -4 mV) and the “Zeta-pot. / mV” value is given as -4.2 mV.

Consider LASLIYR [reference compound], for which, in data set [1], the “Log10 Infection Rel EF-C” value is -1.2 and the “Inf. rel. EF-C” value was 0.06. Also, the “ThT Cat. / ThT-Fluorescence (categorical)” value (shortened to “ThT Cat. / ThT-Fluorescence”) in data set [2] is 0 (ThT-inactive (N-Fold <2)). In data set [3], the “Zeta pot. / mV” value was -5.0 mV and the “Zeta-Potential / mV” value is -5.01 mV.

On to MKVIFLKDVKG [reference compound], for which, in data set [1] (fibril-forming peptides with positive zeta-potential, low count rate), the “infectivity enhancement, in words” value is given as “do not enhance infectivity”. For the same substance, in data set [1], the “Log10 Infection Rel EF-C” value is given as -0.93 and the “Inf. rel. EF-C” value worked out at 0.12. In data set [2], the “ThT Cat. / ThT-Fluorescence” value was 0 (ThT-inactive (N-Fold <2)). In data set [3], the “Zeta pot. / mV” value is listed as 9.6 mV and the “Zeta-Potential / mV” value was 9.62 mV.

For NKGAII [reference compound], in data set [1], the “Log10 Infection Rel EF-C” value is -1.2 and the “Inf. rel. EF-C” value was found to be 0.06. In addition, the “ThT Cat. / ThT-Fluorescence” value in data set [2] was 0 (ThT-inactive (N-Fold <2)). In data set [3], the “Zeta pot. / mV” value was -9.5 mV and the “Zeta-Potential / mV” value is recorded as -9.46 mV.

For the substance NMWQKAKAQA [JG10], in data set [1], the infectivity entry is on record as “low” and the “Log10 Inf. rel. to EF-C” value is listed as -1.376. The “Tht category (> 1.5 to blank = +)” value in data set [2] (FigS26) was 1 (Tht category (> 1.5 to blank = +)). In addition, the “Zeta category” value in data set [3] (FigS26) is -1 (-1 = if < -4 mV). Besides, the “Zeta-pot. / mV” value in data set [3] is recorded as -5.56 mV.

On to NMWQKFKFQF [JG11], for which, in data set [1], the infectivity entry is “medium” and the “Log10 Inf. rel. to EF-C” value is given as -0.5672. The “Tht category (> 1.5 to blank = +)” value in data set [2] (FigS26) is given as 0 (Tht category (> 1.5 to blank = +)). Further, the “Zeta category” value in data set [3] (FigS26) was 1 (+1 = if > 4 mV). Further, in data set [3], the “Zeta-pot. / mV” value is reported as 9.56 mV.

NMWQKIKIQI [JG9]: in data set [1], the infectivity entry is “medium” and the “Log10 Inf. rel. to EF-C” value is given as -0.6877. For the same substance, the “Tht category (> 1.5 to blank = +)” value in data set [2] (FigS26) was 1 (Tht category (> 1.5 to blank = +)). The “Zeta category” value in data set [3] (FigS26) is listed as 1 (+1 = if > 4 mV). In data set [3], the “Zeta-pot. / mV” value was 8.26 mV.

NMWQKIKQII [JG8]: in data set [1], the infectivity result is recorded as “low” and the “Log10 Inf. rel. to EF-C” value is recorded as -1.5971. Besides, the “Tht category (> 1.5 to blank = +)” value in data set [2] (FigS26) was 0 (Tht category (> 1.5 to blank = +)). For the same substance, the “Zeta category” value in data set [3] (FigS26) was 0 (0 = -4mV to 4 mV). Also, in data set [3], the “Zeta-pot. / mV” value is on record as -0.213 mV.

(Values after publication PMC10447463, “Data-mining unveils structure–property–activity correlation of viral infectivity enhancing self-assembling peptides” (Nature Communications, 2023).)
